Reference: ChEMBL document CHEMBL3217509, “Discovery of an HIV integrase inhibitor with an excellent resistance profile” (Medchemcomm, 2013)

Assays:
Design in all cases: species or system Homo sapiens
[1] = Inhibition of DNA polymerase beta (unknown origin)
[2] = Inhibition of DNA polymerase alpha (unknown origin)
[3] = Inhibition of DNA polymerase gamma (unknown origin)

IC50 [3] | SMILES | IC50 [1] | IC50 [2]
 | C[C@@]1(CO)[C@H](O)CC[C@@]2(C)[C@H]1CC[C@H]1C[C@@H]3C[C@@]12CC[C@]3(O)CO [APHIDICOLIN] | 1.96 µM | 7.17 µM
≤ 50 µM | O=C1Nc2ccc(Cl)cc2[C@@](C#CC2CC2)(C(F)(F)F)O1 [EFAVIRENZ] | > 50 µM | > 50 µM
